Several values for one entry are separate records, joined by “and”; a condition that tells them apart may be missing. Equal values may be shown once. Numbers after ± are expanded uncertainties.
Details: 283.15 K, Liquid, Vibrating tube method

For `CCCCCC(=O)OCC(COC(=O)CCCCC)(COC(=O)CCCCC)COC(=O)CCCCC` [pentaerythritol tetrahexanoate], the mass density (6771 kPa) was 1008.1 ± 1.2 kg/m3, the mass density (6771.2 kPa) was 1008 ± 1.2 kg/m3 and the mass density (6771.4 kPa) was 1008.1 ± 1.2 kg/m3 and 1008 ± 1.2 kg/m3. It also gave a mass density (6771.6 kPa) of 1008.1 ± 1.2 kg/m3, a mass density (6771.7 kPa) of 1008.1 ± 1.2 kg/m3 and a mass density (6771.9 kPa) of 1008 ± 1.2 kg/m3. For the same compound, the mass density (6772.1 kPa) was 1008.1 ± 1.2 kg/m3, the mass density (6772.3 kPa) was 1008.1 ± 1.2 kg/m3 and the mass density (6772.4 kPa) was 1008 ± 1.2 kg/m3 and 1008.1 ± 1.2 kg/m3 and 1008.2 ± 1.2 kg/m3. For the same compound, the mass density (6772.6 kPa) was 1008.1 ± 1.2 kg/m3 and 1008 ± 1.2 kg/m3, the mass density (6772.8 kPa) was 1008.1 ± 1.2 kg/m3 and 1007.9 ± 1.2 kg/m3 and the mass density (6772.9 kPa) was 1008.1 ± 1.2 kg/m3. The mass density (6773.1 kPa) was 1008 ± 1.2 kg/m3 and 1008.2 ± 1.2 kg/m3, the mass density (6773.3 kPa) was 1008 ± 1.2 kg/m3 and 1008.2 ± 1.2 kg/m3 and the mass density (6773.5 kPa) was 1008 ± 1.2 kg/m3 and 1008.1 ± 1.2 kg/m3. For the same compound, the mass density (6773.6 kPa) was 1008.1 ± 1.2 kg/m3 and 1008.2 ± 1.2 kg/m3 and 1008 ± 1.2 kg/m3, the mass density (6773.7 kPa) was 1008 ± 1.2 kg/m3 and the mass density (6773.8 kPa) was 1008.1 ± 1.2 kg/m3 and 1008 ± 1.2 kg/m3. The mass density (6774.1 kPa) was 1008.1 ± 1.2 kg/m3, the mass density (6774.2 kPa) was 1008.1 ± 1.2 kg/m3 and the mass density (6774.3 kPa) was 1008.1 ± 1.2 kg/m3. For the same compound, the mass density (6774.5 kPa) was 1008.2 ± 1.2 kg/m3 and 1008 ± 1.2 kg/m3 and 1008.1 ± 1.2 kg/m3, the mass density (6774.7 kPa) was 1008.1 ± 1.2 kg/m3 and 1008.2 ± 1.2 kg/m3 and 1008 ± 1.2 kg/m3 and the mass density (6774.8 kPa) was 1007.9 ± 1.2 kg/m3 and 1008.1 ± 1.2 kg/m3 and 1008 ± 1.2 kg/m3. For the same compound, the mass density (6775 kPa) was 1008.1 ± 1.2 kg/m3 and 1007.9 ± 1.2 kg/m3, the mass density (6775.1 kPa) was 1008.2 ± 1.2 kg/m3 and 1008.1 ± 1.2 kg/m3 and the mass density (6775.2 kPa) was 1008.1 ± 1.2 kg/m3 and 1008.2 ± 1.2 kg/m3. The mass density (6775.4 kPa) was 1008.2 ± 1.2 kg/m3 and 1008 ± 1.2 kg/m3, the mass density (6776.1 kPa) was 1008.1 ± 1.2 kg/m3 and the mass density (6776.2 kPa) was 1008.1 ± 1.2 kg/m3. For the same compound, the mass density (6776.6 kPa) was 1008.2 ± 1.2 kg/m3 and 1008.1 ± 1.2 kg/m3, the mass density (6776.8 kPa) was 1008.1 ± 1.2 kg/m3 and 1008.2 ± 1.2 kg/m3 and 1008 ± 1.2 kg/m3 and the mass density (6776.9 kPa) was 1008.2 ± 1.2 kg/m3 and 1008.1 ± 1.2 kg/m3. For the same compound, the mass density (6777.1 kPa) was 1008.1 ± 1.2 kg/m3, the mass density (6777.3 kPa) was 1008.1 ± 1.2 kg/m3 and the mass density (6777.5 kPa) was 1008.1 ± 1.2 kg/m3 and 1008 ± 1.2 kg/m3. For the same compound, the mass density (6777.6 kPa) was 1008.1 ± 1.2 kg/m3 and 1008 ± 1.2 kg/m3, the mass density (6777.8 kPa) was 1008.1 ± 1.2 kg/m3 and 1008.2 ± 1.2 kg/m3 and 1008 ± 1.2 kg/m3 and the mass density (6778 kPa) was 1008.2 ± 1.2 kg/m3. For the same compound, the mass density (6778.1 kPa) was 1008 ± 1.2 kg/m3 and 1008.1 ± 1.2 kg/m3 and 1008.2 ± 1.2 kg/m3, the mass density (6778.3 kPa) was 1008.1 ± 1.2 kg/m3 and 1008.2 ± 1.2 kg/m3 and the mass density (6778.5 kPa) was 1008.1 ± 1.2 kg/m3 and 1008 ± 1.2 kg/m3 and 1007.9 ± 1.2 kg/m3. The mass density (6778.7 kPa) was 1008 ± 1.2 kg/m3 and 1008.1 ± 1.2 kg/m3, the mass density (6779 kPa) was 1008.1 ± 1.2 kg/m3 and the mass density (6779.2 kPa) was 1008 ± 1.2 kg/m3 and 1008.1 ± 1.2 kg/m3. The mass density (6779.3 kPa) was 1008.2 ± 1.2 kg/m3, the mass density (6779.5 kPa) was 1008 ± 1.2 kg/m3 and 1008.1 ± 1.2 kg/m3 and the mass density (6779.7 kPa) was 1008.1 ± 1.2 kg/m3 and 1008.2 ± 1.2 kg/m3. For the same compound, the mass density (6779.8 kPa) was 1008.2 ± 1.2 kg/m3, the mass density (6779.9 kPa) was 1008 ± 1.2 kg/m3 and 1008.1 ± 1.2 kg/m3 and the mass density (6780 kPa) was 1008.1 ± 1.2 kg/m3 [middle of 4 runs]. The mass density (6780.2 kPa) was 1008.1 ± 1.2 kg/m3 and 1008 ± 1.2 kg/m3, the mass density (6780.3 kPa) was 1008 ± 1.2 kg/m3 and the mass density (6780.4 kPa) was 1008 ± 1.2 kg/m3 and 1008.2 ± 1.2 kg/m3 and 1008.1 ± 1.2 kg/m3. For the same compound, the mass density (6780.5 kPa) was 1008.1 ± 1.2 kg/m3 and 1008 ± 1.2 kg/m3, the mass density (6780.6 kPa) was 1008.1 ± 1.2 kg/m3 and the mass density (6780.7 kPa) was 1008 ± 1.2 kg/m3 and 1008.2 ± 1.2 kg/m3 and 1008.1 ± 1.2 kg/m3. The mass density (6780.8 kPa) was 1008.2 ± 1.2 kg/m3 and 1008.1 ± 1.2 kg/m3, the mass density (6780.9 kPa) was 1008.1 ± 1.2 kg/m3 and the mass density (6781 kPa) was 1008.1 ± 1.2 kg/m3 and 1008 ± 1.2 kg/m3 and 1008.2 ± 1.2 kg/m3. The mass density (6781.1 kPa) was 1008.1 ± 1.2 kg/m3, the mass density (6781.2 kPa) was 1008.1 ± 1.2 kg/m3 and the mass density (6781.3 kPa) was 1008.1 ± 1.2 kg/m3. For the same compound, the mass density (6781.4 kPa) was 1008.1 ± 1.2 kg/m3, the mass density (6781.5 kPa) was 1008.1 ± 1.2 kg/m3 and the mass density (6781.7 kPa) was 1007.9 ± 1.2 kg/m3. The mass density (6781.9 kPa) was 1008.1 ± 1.2 kg/m3 and 1008 ± 1.2 kg/m3, the mass density (6782 kPa) was 1008.2 ± 1.2 kg/m3 and the mass density (6782.2 kPa) was 1008.2 ± 1.2 kg/m3 and 1008.1 ± 1.2 kg/m3 and 1008 ± 1.2 kg/m3. The mass density (6782.4 kPa) was 1007.9 ± 1.2 kg/m3 and 1008.2 ± 1.2 kg/m3 and 1008.1 ± 1.2 kg/m3, the mass density (6782.6 kPa) was 1008.1 ± 1.2 kg/m3 and 1008 ± 1.2 kg/m3 and the mass density (6782.7 kPa) was 1008.2 ± 1.2 kg/m3 and 1008.1 ± 1.2 kg/m3 and 1008 ± 1.2 kg/m3.

Reference: the NIST ThermoML archive (doi:10.1021/je060271a)
